# In article PMC6270570, “New Flurbiprofen Derivatives: Synthesis, Membrane Affinity and Evaluation of in Vitro Effect on β-Amyloid Levels” (Molecules, 2013):
# Read-outs that look alike come from different tables or passages of the source. Marks after values point to notes of the source that are not given here.
# Assays:
# [1] = RP-HPLC retention factor extrapolated to 100% water (KC18/W); format: physicochemical; settings: for KC18/W (retention factor extrapolated to 100% water): RP-HPLC, acetonitrile/water mixtures; for chromatographic logP: by comparison with KC18/W and logP of nisoldipine and lacidipine, read-out: logP calculated from KC18/W
# Procedure: Similarly, due to their high lipophilicity, experimental n-octanol/water lipophilicity values of enantiomers 8/9 were determined by RP-HPLC because their characterization through the “classical” shake-flask method was expected to be difficult and scarcely reproducible. The retention factor, determined in acetonitrile/water mixtures and extrapolated to 100% water (KC18/W) for enantiomers 8/9 was 3.94 (data not shown).
# [2] = IAM-HPLC affinity for membrane phospholipids (logKIAM/W); format: physicochemical; settings: IAM.PC.MG column, pH 7.0 phosphate buffer/acetonitrile, extrapolated to 100% aqueous eluent
# Procedure: n-Octanol/water partition coefficients were theoretically calculated by the program clogP for windows version 2.0 (Biobyte Corp., Claremont, CA, USA). Affinity for membrane phospholipids, so called “phospholipophilicity”, was measured by HPLC on a phospholipid stationary phase. […] liquid chromatograph (Waters-Millipore, Milford, MA, USA), equipped with a 7125 Rheodyne injection valve and a 486 UV detector (Waters) set at 246 nm, was used. The column was an IAM.PC.MG (Immobilized Artificial Membrane-PhosphatidylCholine-MethylGlycolate) (4.6 mm × 150 mm) (Regis Chemical Company, Morton Grove, IL, USA). The mobile phase was 0.01 M phosphate buffer at pH 7.0 and acetonitrile at percentages ranging from 10 to 35 percent (v/v) (from 1.0 to 4.0 mL/min). The chromatography was carried out at room temperature. All samples were dissolved in methanol (ca. 10^-3 M) and 20 μL samples were injected in the chromatograph. Chromatographic retention data are expressed as the logarithm of the capacity factor, log k, defined as: log k = log [(tr - t0)/t0] (1) where tr and t0 are the retention times of the drug and a non-retained compound (citric acid), respectively. The log k values relative to 100% aqueous eluent (logKIAM/W) were calculated by performing a polycratic method of extrapolation. Each compound was eluted with at least three different mobile phases containing acetonitrile in different percentages (φ). […] All values of log k reported are the average of at least three measurements; the 95% confidence interval never exceeded 0.04 for each log k value. Possible occurrence of retention changes due to column aging was monitored by checking the retention times of five test compounds (amlodipine, p-nitroaniline, toluene, isradipine, and ketoprofen).
# [3] = parameters: method as in doi:10.1016/0223-5234(96)80368-0; settings: n-octanol/water; cited from earlier work
# [4] = PAMPA-GI permeability (egg lecithin in dodecane); format: in vitro ADME; settings: read-out: PAMPA-GI Pe
# Procedure: (§1) The following protocol was applied to measure the Pe through the artificial membrane to predict oral absorption and BBB permeation. In order to study the g.i. permeability, a 2% solution (w/v) of egg lecithin (phosphatidyl choline > 98%, PC) in dodecane was employed as an artificial membrane solution. The effective permeability of BBB was measured using phospholipid mixture from porcine polar brain lipid extract, composed by PC 12.6%, phosphatidylethanolamine (PE) 33.1%, phosphatidylserine (PS) 18.5%, phosphatidylinositol (PI) 4.1%, phospatidic acid (PA) 0.8% and 30.9% of other compounds (purchased from Avantis Polar Lipids, Alabaster, AL, USA). Each donor filtration plate well was then impregnated with 5 µL of this solution carefully, and immediately after 150 µL of phosphate buffer (pH 7.4/pH 6.5), containing co-drug 1 500 µM and iPrOH 20% as co-solvent was added. Then the drug-filled donor plate was placed into the acceptor plate that had been prefilled with the same buffer (300 µL) as acceptor solution. After plate lid was replaced, the resulting assembled donor-acceptor plates were incubated at r.t. for 2 h for PAMPA-GI and 18 h for PAMPA-BBB, following which drugs concentration in the acceptor and donor solutions were determined by HPLC [37].
# (§2) Log Pe can be calculated from the equation below: [drawing 10] (2) where Pe is the effective permeability coefficient (cm x s^−1), VD is volume of donor compartment (0.15 cm^3) and VA is volume of acceptor compartment (0.30 cm^3), A is effective filter area (0.28 cm^2), t is incubation time for the assay (s), Cacceptor is the concentration of the compound in the acceptor compartment at the completion of the assay, and Cequilibrium is the concentration of compound at theoretical equilibrium.
# [5] = PAMPA-BBB permeability (porcine polar brain lipid extract); format: in vitro ADME; settings: pH 7.4, 18 h of incubation; for Papp at 18 h, 500 µM: PAMPA, read-out: PAMPA-BBB Pe
# Procedure: as §1, §2
# Aβ-42 = test: Western blotting of Aβ-42 expression in CTXTNA2 astrocytes (in vitro γ-secretase activity); format: cell-based, rat; settings: 24 h
# Procedure: CTXTNA2 cell line, established from primary cultures of type 1 astrocytes from brain frontal cortex tissue of 1 day old rats, was obtained by ECACC (Salisbury, UK). Cells have been maintained in DMEM, 10% FBS at 37 °C, 5% CO2 until sub-confluence and incubated for 24 h with a DMSO solution of drug (concentrations ranging from 1 µM to 100 µM). For detection of cell viability, a Trypan blue dye exclusion test has been performed.
# Cell lysates (20 µg) have been electrophoresed and transferred to nitrocellulose membrane. Nitrocellulose membranes, blocked in 5% non-fat milk, 10 mmol/L Tris pH 7.5, 100 mmol/L NaCl, 0.1% Tween-20, have been probed with mouse APP (Millipore, Billerica, MA, USA) and Aβ (Alpha Diagnostic Intl, San Antonio, TX, USA) monoclonal antibodies (Santa Cruz Biotechnology, Santa Cruz, CA, USA), then incubated in the presence of specific enzyme conjugated IgG horseradish peroxidase. Immunoreactive bands have been detected by ECL detection system (Amersham Intl., Buckinghamshire, UK) and analysed by densitometry. Densitometric values, expressed as Integrated Optical Intensity (I.O.I.), have been estimated in a CHEMIDOC XRS system by the QuantiOne 1-D analysis software (BioRad, Richmond, CA, USA). Values obtained have been normalized basing on densitometric values of internal β tubulin. Statistical analysis has been performed using the analysis of variance (ANOVA). Results have been expressed as mean ± SD. Values of p < 0.05 have been considered statistically significant.
# APP = settings: 24 h
# Procedure: For detection of cell viability, a Trypan blue dye exclusion test has been performed [33].
# Cell lysates (20 µg) have been electrophoresed and transferred to nitrocellulose membrane. […] Immunoreactive bands have been detected by ECL detection system (Amersham Intl., Buckinghamshire, UK) and analysed by densitometry. Densitometric values, expressed as Integrated Optical Intensity (I.O.I.), have been estimated in a CHEMIDOC XRS system by the QuantiOne 1-D analysis software (BioRad, Richmond, CA, USA). Values obtained have been normalized basing on densitometric values of internal β tubulin. Statistical analysis has been performed using the analysis of variance (ANOVA). Results have been expressed as mean ± SD. Values of p < 0.05 have been considered statistically significant.
SMILES,KC18/W (retention factor extrapolated to 100% water) [1],LogKIAM/W [2],logP (experimentally determined values) [3],chromatographic logP [1],"Papp at 2 h, 500 µM ([4]; pH 6.5, 2 h of incubation) [×10⁻⁶ cm/s]","Papp at 2 h, 500 µM ([4]; pH 7.4, 2 h of incubation) [×10⁻⁶ cm/s]","Papp at 18 h, 500 µM [5] [×10⁻⁶ cm/s]",Expression of Aβ-42 (Aβ-42; 1 µM),Expression of Aβ-42 (Aβ-42; 10 µM),Expression of Aβ-42 (Aβ-42; 100 µM),melting point [°C],Expression of APP (APP; 1 µM),Expression of APP (APP; 10 µM),Expression of APP (APP; 100 µM),PAMPA-BBB Pe [5]
"COC(=O)C1=C(C)NC(C)=C(C(=O)OCC(C)C)C1c1ccccc1[N+](=O)[O-] (stereo not drawn) [Nisoldipine, reference compound]",2.99,2.63,4.53 ^a,,,,,,,,,,,,
"CCOC(=O)C1=C(C)NC(C)=C(C(=O)OCC)C1c1ccccc1/C=C/C(=O)OC(C)(C)C [Lacidipine, reference compound]",4.01,3.52,5.56 ^a,,,,,,,,,,,,
"CN1C(=O)[C@@H](NC(=O)Cc2ccc(-c3ccccc3)c(F)c2)c2ccccc2-c2ccccc21 [Compound 9, 2-(2-Fluoro-1,1'-biphenyl-4-yl)-N-[(7S)-5-methyl-6-oxo-6,7-dihydro-5H-dibenzo[b,d]azepin-7-yl]-acetamide]",3.94,3.58,,5.49,2.5,2.6,2.3,(43.2 ± 2.1) × 10^−2,(38.4 ± 1.0) × 10^−2,(14.0 ± 0.5) × 10^−2,96 to 100,(68.7 ± 2.2) × 10^−2,(69.2 ± 1.4) × 10^−2,(94.3 ± 3.2) × 10^−2,
"C[C@H](NC(=O)Cc1ccc(-c2ccccc2)c(F)c1)C(=O)N[C@H](C(=O)OC(C)(C)C)c1ccccc1 [Compound 3, tert-butyl (2S)-({N-[(2-fluoro-1,1'-biphenyl-4-yl)acetyl]-L-alanyl}amino)(phenyl)acetate]",,3.64,,,2.1,2,,(8.8. ± 0.4) × 10^−2,(10.5 ± 0.4) × 10^−2,(45.8. ± 1.3) × 10^−2,104 to 106,(64.1 ± 2.3) × 10^−2,(72.2 ± 2.1) × 10^−2,(105 ± 3.2) × 10^−2,2.0 10^−6 cm/s
"CN1C(=O)[C@H](NC(=O)Cc2ccc(-c3ccccc3)c(F)c2)c2ccccc2-c2ccccc21 [Compound 8, 2-(2-Fluoro-1,1'-biphenyl-4-yl)-N-[(7R)-5-methyl-6-oxo-6,7-dihydro-5H-dibenzo[b,d]azepin-7-yl]-acetamide]",3.94,3.58,,5.49,2.5,2.6,2.3,(31.1 ± 0.9) × 10^−2,(25.0 ± 1.0) × 10^−2,(35.2 ± 1.1) × 10^−2,96 to 100,(82.3 ± 3.2) × 10^−2,(68.1 ± 3.2) × 10^−2,(94.4 ± 4.2) × 10^−2,
"C[C@H](NC(=O)[C@H](C)c1ccc(-c2ccccc2)c(F)c1)C(=O)N[C@H](C(=O)OC(C)(C)C)c1ccccc1 [Compound 1, tert-Butyl (2S)-({N-[(2R)-2-(2-fluoro-1,1'-biphenyl-4-yl)propanoyl]-L-alanyl}amino)(phenyl)acetate]",,3.67,,,3.7,4.8,2.4,(29.2 ± 1.2) × 10^−2,(43.5 ± 1.6) × 10^−2,(45.8. ± 1.3) × 10^−2,105 to 107,(93.1 ± 3.8) × 10^−2,(89.4 ± 3.2) × 10^−2,(120 ± 3.2) × 10^−2,
